# Experimental data taken from ChEMBL document CHEMBL1201862, “PubChem BioAssay data set” (2004).
#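 Compound exposure: 48 hours, 5 concentrations, 96-well plates. Abbreviation: GI50, concentration required for 50% inhibition of growth.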 Active and inactive are the calls of the source. Rule as the data show it: active = GI50 up to about 1.1 µM and inactive = higher.
# Assays:
# Assay in all cases: inhibition of tumour cell growth, NCI panel, 48 h
# 786-0 = test system: 786-0
# A498 = test system: A498
# A549 = test system: A549
# ACHN = test system: ACHN
# BT-549 = test system: BT-549
# CAKI-1 = test system: CAKI-1
# CCRF-CEM = test system: CCRF-CEM
# COLO 205 = test system: COLO 205
# EKVX = test system: EKVX
# HCC 2998 = test system: HCC 2998
# HCT-116 = test system: HCT-116
# HCT-15 = test system: HCT-15
# HL-60 = test system: HL-60
# HOP-62 = test system: HOP-62
# HOP-92 = test system: HOP-92
# HT-29 = test system: HT-29
# Hs-578T = test system: Hs-578T
# IGROV-1 = test system: IGROV-1
# K562 = test system: K562
# KM12 = test system: KM12
# LOX IMVI = test system: LOX IMVI
# M14 = test system: M14
# MCF7 = test system: MCF7
# MDA-MB-231 = test system: MDA-MB-231
# MDA-MB-435 = test system: MDA-MB-435
# MDA-N = test system: MDA-N
# MOLT-4 = test system: MOLT-4
# Malme-3M = test system: Malme-3M
# NCI-H226 = test system: NCI-H226
# NCI-H23 = test system: NCI-H23
# NCI-H460 = test system: NCI-H460
# NCI-H522 = test system: NCI-H522
# NCI/ADR-RES = test system: NCI/ADR-RES
# OVCAR-3 = test system: OVCAR-3
# OVCAR-4 = test system: OVCAR-4
# OVCAR-5 = test system: OVCAR-5
# OVCAR-8 = test system: OVCAR-8
# PC-3 = test system: PC-3
# RPMI-8226 = test system: RPMI-8226
# SF-268 = test system: SF-268
# SF-295 = test system: SF-295
# SF-539 = test system: SF-539
# SK-MEL-28 = test system: SK-MEL-28
# SK-MEL-2 = test system: SK-MEL-2
# SK-MEL-5 = test system: SK-MEL-5
# SK-OV-3 = test system: SK-OV-3
# SN12C = test system: SN12C
# SNB-19 = test system: SNB-19
# SNB-75 = test system: SNB-75
# SR = test system: SR
# SW-620 = test system: SW-620
# T47D = test system: T47D
# TK-10 = test system: TK-10
# U-251 = test system: U-251
# UACC-257 = test system: UACC-257
# UACC-62 = test system: UACC-62
# UO-31 = test system: UO-31
# DU-145 = test system: DU-145
# RXF 393 = test system: RXF 393
smiles,measurement,setting,value
CCOC(=O)CCC(NC(=O)c1ccc(Nc2nc3ccccc3nc2C(=O)OCC)cc1)C(=O)OCC (stereo not given),GI50,786-0,1.85 µM (inactive)
same,GI50,A498,6.79 µM (inactive)
same,GI50,A549,3.78 µM (inactive)
same,GI50,ACHN,3.58 µM (inactive)
same,GI50,BT-549,7.66 µM (inactive)
same,GI50,CAKI-1,5.96 µM (inactive)
same,GI50,CCRF-CEM,> 100 µM (inactive)
same,GI50,COLO 205,> 33.7 µM (inactive)
same,GI50,EKVX,7.38 µM (inactive)
same,GI50,HCC 2998,> 76 µM (inactive)
same,GI50,HCT-116,2.95 µM (inactive)
same,GI50,HCT-15,18.1 µM
same,GI50,HL-60,> 100 µM (inactive)
same,GI50,HOP-62,3.89 µM (inactive)
same,GI50,HOP-92,3.91 µM (inactive)
same,GI50,HT-29,4.67 µM (inactive)
same,GI50,Hs-578T,3.1 µM (inactive)
same,GI50,IGROV-1,3.54 µM (inactive)
same,GI50,K562,> 100 µM (inactive)
same,GI50,KM12,3.78 µM (inactive)
same,GI50,LOX IMVI,5.58 µM (inactive)
same,GI50,M14,8.89 µM (inactive)
same,GI50,MCF7,11.3 µM (inactive)
same,GI50,MDA-MB-231,9.62 µM (inactive)
same,GI50,MDA-MB-435,3.91 µM (inactive)
same,GI50,MDA-N,3.89 µM (inactive)
same,GI50,MOLT-4,> 100 µM (inactive)
same,GI50,Malme-3M,6.67 µM (inactive)
same,GI50,NCI-H226,3.24 µM (inactive)
same,GI50,NCI-H23,7.52 µM (inactive)
same,GI50,NCI-H460,> 72.1 µM (inactive)
same,GI50,NCI-H522,3.3 µM (inactive)
same,GI50,NCI/ADR-RES,5.46 µM (inactive)
same,GI50,OVCAR-3,2.04 µM (inactive)
same,GI50,OVCAR-4,1.61 µM (inactive)
same,GI50,OVCAR-5,> 28.6 µM (inactive)
same,GI50,OVCAR-8,2.75 µM (inactive)
same,GI50,PC-3,16.9 µM (inactive)
same,GI50,RPMI-8226,6.76 µM (inactive)
same,GI50,SF-268,7.71 µM (inactive)
same,GI50,SF-295,7.71 µM (inactive)
same,GI50,SF-539,2.48 µM (inactive)
same,GI50,SK-MEL-28,8.91 µM (inactive)
same,GI50,SK-MEL-2,6.79 µM (inactive)
same,GI50,SK-MEL-5,27.8 µM (inactive)
same,GI50,SK-OV-3,2.47 µM (inactive)
same,GI50,SN12C,15.7 µM (inactive)
same,GI50,SNB-19,3.94 µM (inactive)
same,GI50,SNB-75,2.36 µM (inactive)
same,GI50,SR,> 39.3 µM (inactive)
same,GI50,SW-620,5.77 µM (inactive)
same,GI50,T47D,2.18 µM (inactive)
same,GI50,TK-10,2.92 µM (inactive)
same,GI50,U-251,3.12 µM (inactive)
same,GI50,UACC-257,18.9 µM (inactive)
same,GI50,UACC-62,3.2 µM (inactive)
same,GI50,UO-31,4.28 µM (inactive)
CCOC(=O)c1c(Br)c(-c2ccc(OC)cc2)c(Br)n1C,GI50,786-0,21.6 µM (inactive)
same,GI50,A498,14.6 µM (inactive)
same,GI50,A549,21.3 µM (inactive)
same,GI50,ACHN,29.6 µM (inactive)
same,GI50,BT-549,22.4 µM (inactive)
same,GI50,CAKI-1,> 10 µM (inactive)
same,GI50,CCRF-CEM,16.3 µM (inactive)
same,GI50,COLO 205,27.6 µM (inactive)
same,GI50,DU-145,32.2 µM (inactive)
same,GI50,EKVX,16.8 µM (inactive)
same,GI50,HCC 2998,> 10 µM (inactive)
same,GI50,HCT-116,6.56 µM (inactive)
same,GI50,HCT-15,8.61 µM
same,GI50,HL-60,4.06 µM (inactive)
same,GI50,HOP-62,11.8 µM (inactive)
same,GI50,HOP-92,8.17 µM (inactive)
same,GI50,HT-29,12.7 µM (inactive)
same,GI50,Hs-578T,11.6 µM (inactive)
same,GI50,IGROV-1,22.2 µM (inactive)
same,GI50,K562,3.61 µM (inactive)
same,GI50,KM12,11.4 µM (inactive)
same,GI50,LOX IMVI,7.14 µM (inactive)
same,GI50,M14,26.4 µM (inactive)
same,GI50,MCF7,8.39 µM (inactive)
same,GI50,MDA-MB-231,17 µM (inactive)
same,GI50,MDA-MB-435,2.37 µM (inactive)
same,GI50,MOLT-4,8.57 µM (inactive)
same,GI50,Malme-3M,12.1 µM (inactive)
same,GI50,NCI-H226,22.2 µM (inactive)
same,GI50,NCI-H23,28 µM (inactive)
same,GI50,NCI-H460,52.2 µM (inactive)
same,GI50,NCI-H522,6.62 µM (inactive)
same,GI50,NCI/ADR-RES,5.18 µM (inactive)
same,GI50,OVCAR-3,17.1 µM (inactive)
same,GI50,OVCAR-4,47.1 µM (inactive)
same,GI50,OVCAR-5,72.3 µM (inactive)
same,GI50,OVCAR-8,27.1 µM (inactive)
same,GI50,PC-3,11.1 µM (inactive)
same,GI50,RPMI-8226,17.7 µM (inactive)
same,GI50,RXF 393,17.3 µM (inactive)
same,GI50,SF-268,55.5 µM (inactive)
same,GI50,SF-295,25.2 µM (inactive)
same,GI50,SF-539,20.7 µM (inactive)
same,GI50,SK-MEL-28,37.6 µM (inactive)
same,GI50,SK-MEL-2,19.2 µM (inactive)
same,GI50,SK-MEL-5,10.6 µM (inactive)
same,GI50,SK-OV-3,18.5 µM (inactive)
same,GI50,SN12C,12.9 µM (inactive)
same,GI50,SNB-19,34.9 µM (inactive)
same,GI50,SNB-75,1.94 µM (inactive)
same,GI50,SR,2.23 µM (inactive)
same,GI50,SW-620,9.46 µM (inactive)
same,GI50,T47D,13.4 µM (inactive)
same,GI50,TK-10,20.7 µM (inactive)
same,GI50,U-251,33.2 µM (inactive)
same,GI50,UACC-257,23.2 µM (inactive)
same,GI50,UACC-62,5.09 µM (inactive)
same,GI50,UO-31,12.2 µM (inactive)
